# Assays:
# Assay type in all cases: functional
# Artemia = test: Compound was tested for its cytotoxic activity by brine shrimp lethality test
# HT-29 = test: Compound was tested for its cytotoxic activity in MTT assay against HT-29 cell line (human colon adenocarcinoma); conditions: read-out: ED50 (the source's name)
# MCF9 = test: Compound was tested for its cytotoxic activity in MTT assay against MCF-9 cell line (human breast carcinoma); conditions: read-out: ED50 (the source's name)
# A549 = test: Compound was tested for its cytotoxic activity in MTT assay against A-549 cell line (human lung carcinoma); conditions: read-out: ED50 (the source's name)
Structure (SMILES),LC50 (Artemia),EC50 (HT-29),EC50 (MCF9),EC50 (A549)
CO[C@]1(C(C)(C)O)CC[C@@H]([C@@H]2CC=C3[C@@]4(C)C(CC[C@]32C)[C@]2(C)C(C[C@H]4OC(C)=O)C(C)(C)C(OC(=O)c3ccccc3)C[C@@H]2OC(C)=O)CO1 (stereo partly specified),107 µg/mL,0.49 µg/mL,3.06 µg/mL,13.3 µg/mL
CO[C@@]1(C(C)(C)O)CC[C@@H]([C@@H]2CC=C3[C@@]4(C)C(CC[C@]32C)[C@]2(C)C(C[C@H]4OC(C)=O)C(C)(C)C(OC(=O)c3ccccc3)C[C@@H]2OC(C)=O)CO1 (stereo partly specified),89.3 µg/mL,0.25 µg/mL,2.02 µg/mL,10.6 µg/mL
COc1cccc2c1C(=O)c1c(O)c3c(c(O)c1C2=O)C[C@@](O)(C(=O)CO)C[C@@H]3O[C@H]1C[C@H](N)[C@H](O)[C@H](C)O1 [DOXORUBICIN],–,0.0261 µg/mL,0.0673 µg/mL,0.00844 µg/mL

# Source: ChEMBL document CHEMBL1128616, “A pair of new apotirucallane triterpenes, meliavolkensins A and B, from Melia volkensii (Meliaceae)” (1995)
